Common to all, as to format: cell-based
One assay addresses T1, SHP2 protein (Homo sapiens, UniProt Q06124).
T1 sequence (Q06124 1-593): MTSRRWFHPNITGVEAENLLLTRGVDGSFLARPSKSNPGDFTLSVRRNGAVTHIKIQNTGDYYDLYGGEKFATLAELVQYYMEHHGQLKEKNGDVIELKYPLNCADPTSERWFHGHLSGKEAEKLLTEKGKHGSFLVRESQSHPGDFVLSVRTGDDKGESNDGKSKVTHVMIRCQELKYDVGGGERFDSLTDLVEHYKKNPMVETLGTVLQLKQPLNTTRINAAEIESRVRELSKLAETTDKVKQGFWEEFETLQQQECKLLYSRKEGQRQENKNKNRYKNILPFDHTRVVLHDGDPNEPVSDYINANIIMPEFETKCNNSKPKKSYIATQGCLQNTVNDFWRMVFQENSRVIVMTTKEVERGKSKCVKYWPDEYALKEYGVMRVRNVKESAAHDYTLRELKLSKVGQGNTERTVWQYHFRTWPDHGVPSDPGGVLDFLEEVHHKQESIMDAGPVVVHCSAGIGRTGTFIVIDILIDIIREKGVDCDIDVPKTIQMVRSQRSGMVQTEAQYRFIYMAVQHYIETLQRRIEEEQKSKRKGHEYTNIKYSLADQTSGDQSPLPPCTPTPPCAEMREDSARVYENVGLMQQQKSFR
Kind of assay: Degradation activity on SHP2 protein in MIA Paca-2 cells (Western blot, DC50). The arrangement: endogenous in cells; host or cells: MIA Paca-2 cells. The following applies: read-out: Degradation activity for differenct cell lines MIA Paca-2 (DC50). A digest of the protocol:
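Cells were treated 24 h at 37 °C with compound (0.1–100 nM final, 0.1% DMSO). SHP2 was measured by Western blot with GAPDH as loading control, densitometry normalized to DMSO (100%). DC50, the concentration giving 50% degradation, came from a dose-response fit.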
A general note: Immunoblotting shows a protein as a band on a membrane.

The subject of the next assay is MV-411 cell line. The assay can be described thus: Inhibition of cell proliferation, MV-411 (CCK-8). The following applies: Homo sapiens, MV4-11, 120 h, MV411 cells, 5 days, read-out: Inhibition activity on the proliferation of different cell lines MV411 (IC50). How it is done: • MV-411 cell line (COBIER, CBP-60522) • FBS (GEMINI, Cat. No. 900-108) • 0.01M PBS (Biosharp, Cat. No. 162262) • IMDM (Hyclone, Cat. No. SH30228.01) • Penicillin-Streptomycin (Gibco, Cat. No. 15140122) • DMSO (Sigma, Cat. No. D5879) • Cell counting kit-8 (Signalway Antibody, Cat. No. CP002) • Centrifuge Tube, 15 ml (Excell Bio, Cat. No. CS015-0001) • Cell Culture Dish, (WHB, Cat. No. CS016-0128) • 96-well cell culture cluster (Corning, Cat. No. 3599)
• (1) Cell culture medium: IMDM medium+10% FBS+1% Pen Strep; • (2) PBS buffer: PBS powder was dissolved in 2 L of ultrapure water and sterilized;
(§1) (1) MV-411 cells were cultured in the cell culture medium, and then well-growing cells were selected and inoculated in a 96-well plate at 80 μL/well, with 2×10^4 cells/well. The plate was incubated overnight in a 5% CO2 cell incubator at 37° C.
(§2) (2) 10 mM storage solution of each drug was prepared using dimethylsulfoxide (DMSO). The stock solution was diluted in a ratio of 1:3 with DMSO before use, and then the solution was serially diluted in a ratio of 1:3, to obtain 9 gradient concentrations. Each concentration was further diluted with the medium in a ratio of 1:200 (to ensure that the DMSO concentration in the culture system was 0.1%). Two wells were set for each concentration. 20 μL of each compound solution was added to the cell culture well (with a final concentration of 10 μM, 3.3 μM, 1.1 μM . . . ). The plate was gently shaken and mixed. Additionally, 3 negative control wells (only containing cells) and 3 blank control wells (only containing the medium) were included (6 wells were each added with 20 μL of DMSO diluted with the medium in a ratio of 1:200).
(§3) (1) After 5 days of cultivation, 10 μL of CCK-8 was added to each well, and then the plate was further cultured for 3 h at 37° C. in a 5% CO2 cell incubator.
(§4) (2) The absorbance (OD value) was measured at 450 nm with a multifunctional microplate reader. (3) The data were analyzed using the Dose-response-inhibition equation in GraphPad Prism8 software to obtain the IC50 value.

Another assay has as its system KYSE 520. The assay can be described thus: Inhibition of cell proliferation, KYSE 520 (CCK-8). The following applies: Homo sapiens, KYSE 520 cells, read-out: Inhibition activity on the proliferation of different cell lines KYSE 520 (IC50). How it is done: as §1, §2, §3, §4
(§5) Using a similar method, the IC50 value (nM) for the inhibitory activity of the compound according to the present invention against different cell lines was obtained, and the results are shown in Table 3 (++++: IC50>5 μM; +++: 1 μM<IC50<5 μM; ++: IC50<1 μM).

The next assay concerns NCI-H1975. Kind of assay: Inhibition of cell proliferation, NCI-H1975 (CCK-8). The following applies: Homo sapiens, NCI-H1975 cells, read-out: Inhibition activity on the proliferation of different cell lines NCI-H1975 (IC50). How it is done:
as §1, §2, §3, §4, §5

This note sets out measurements from patent US20240383908A1, “SYNTHESIS AND APPLICATION OF PHOSPHATASE DEGRADER” (HINOVA PHARMACEUTICALS INC., priority 2021, published 2024).

Structures are written as SMILES. Counter-ions that a name gives are not always drawn.

As to `C[C@@H]1OCC2(CCN(c3cnc(Sc4cccc(NC(=O)c5ccc(N6CCC(N7CC=C(c8ccc(C(=O)NCc9ccc%10c(c9)CN(C9CCC(=O)NC9=O)C%10=O)nc8)CC7)CC6)c(F)c5)c4)cn3)CC2)[C@@H]1N` (stereo partly shown) [Compound 412], the DC50 at SHP2 protein is under 100 nM. Moreover, the IC50 with MV-411 cell line was 1000 to 5000 nM; in the assay with KYSE 520 it was 1000 to 5000 nM; in the assay with NCI-H1975, under 1000 nM.

In the case of `C[C@@H]1OCC2(CCN(c3cnc(Sc4cccc(NCc5ccc(N6CCC(N7CC=C(c8ccc(C(=O)NCc9ccc%10c(c9)CN(C9CCC(=O)NC9=O)C%10=O)nc8)CC7)CC6)c(F)c5)c4)cn3)CC2)[C@@H]1N` (stereo partly shown) [Compound 485], at SHP2 protein, the DC50 was under 100 nM. The IC50 with NCI-H1975 is under 1000 nM.

Take `C[C@@H]1OCC2(CCN(c3cnc(Sc4cccc(NC(=O)c5ccc(N6CCC(N7CCN(c8ccc(C(=O)NCc9ccc%10c(c9)CN(C9CCC(=O)NC9=O)C%10=O)c(F)c8)CC7)CC6)c(F)c5)c4)cn3)CC2)[C@@H]1N` (stereo partly shown) [Compound 501, hydrochloride]: on SHP2 protein, the DC50 is under 100 nM. In addition, the IC50 with MV-411 cell line is under 1000 nM; in the assay with KYSE 520 it was 1000 to 5000 nM; in the assay on NCI-H1975, 1000 to 5000 nM.

The DC50 is the midpoint of the concentration-degradation curve.
